# Values of other authors as cited in publication PMC8347148, “An Evaluation of Human Induced Pluripotent Stem Cells to Test for Cardiac Developmental Toxicity” (International Journal of Molecular Sciences, 2021).
# Settings: can be as high as; cited from earlier work
compound,measurement,value
CN1CCC[C@H]1c1cccnc1 [nicotine],nicotine concentration in fetal serum,≤ 15.4 µM
